Experimental data published in patent US9956204B2, “Composition for exterminating scuticociliates in fish including mebendazole” (NATIONAL INSTITUTE OF FISHERIES SCIENCE, priority 2016, dated 2018).

How the values were obtained:
scuticociliates [1] = experiment: Scuticociliates extermination effect of candidate substances in MEM medium; assay type: cell-based
Procedure: CHSE-214 cell line into which scuticociliates were inoculated was cultured in advance. The CHSE-214 cell line was cultured in an incubator using an MEM medium at 22° C. Scuticociliates inoculated into the cell line proliferated for 3 days by which the number reaches to be capable of analyzing in vitro anti-scuticociliates effect. Scuticociliates that feed on the cell line and sufficiently grow were mixed with the candidate substance and the activity of scuticociliates was measured.
In order to analyze the antiparasitic activity of the above 19 types of candidate substances of scuticociliates extermination drugs, scuticociliates were cultured for 3 days, and 100 μl (1×10^5) was dispensed into each well of 96 wells. The candidate substances were diluted by each concentration and the final volume was dispensed into 100 μl. Thereafter, the two were mixed and finally made into 200 μl.

scuticociliates [2] = experiment: Scuticociliates extermination effect of candidate substances in seawater medium; assay type: cell-based
Procedure: For this, scuticociliates were cultured in CHSE-214 cell line (using MEM medium), and then scuticociliates were collected and centrifuged with sterilized seawater or artificial seawater (20‰) to replace them with a seawater medium. Each of 100 μl (1×10^5) was dispensed into each well of 96 wells, followed by further culture for 30 minutes. The candidate substances diluted in seawater to have a volume of 100 μl per each concentration were mixed with scuticociliates to have the final volume of 200 μl and cultured for 4 hour.

[3] = seawater medium, 4 hour, Dosage 500 ppm
[4] = seawater medium, 4 hour, Dosage 1000 ppm
[5] = seawater medium, 4 hour, Dosage 1500 ppm
[6] = seawater medium, 4 hour, Dosage 2000 ppm
[7] = seawater medium, 4 hour, Dosage 2500 ppm

SMILES: COC(=O)Nc1nc2ccc([S+]([O-])c3ccccc3)cc2[nH]1 (stereo not drawn) [Oxfendazole]
- Survival or Death of scuticociliates (activity and shape, microscope) (scuticociliates [1]; MEM medium, Dosage 10 ppm): Survival
- Survival or Death of scuticociliates (activity and shape, microscope) (scuticociliates [1]; MEM medium, Dosage 50 ppm): Survival
- Survival or Death of scuticociliates (activity and shape, microscope) (scuticociliates [1]; MEM medium, Dosage 100 ppm): Survival
- Survival or Death of scuticociliates (activity and shape, microscope) (scuticociliates [1]; MEM medium, Dosage 200 ppm): Survival
- Survival or Death of scuticociliates (activity and shape, microscope) (scuticociliates [1]; MEM medium, Dosage 300 ppm): Survival
- Survival or Death of scuticociliates (activity and shape, microscope) (scuticociliates [1]; MEM medium, Dosage 400 ppm): Survival
- Survival or Death of scuticociliates (activity and shape, microscope) (scuticociliates [1]; MEM medium, Dosage 500 ppm): Survival
- Survival or Death of scuticociliates (activity and shape, microscope) (scuticociliates [1]; MEM medium, Dosage 600 ppm): Survival
- Survival or Death of scuticociliates (activity and shape, microscope) (scuticociliates [1]; MEM medium, Dosage 700 ppm): Δ
- Survival or Death of scuticociliates (activity and shape, microscope) (scuticociliates [1]; MEM medium, Dosage 800 ppm): Δ
- Survival or Death of scuticociliates (activity and shape, microscope) (scuticociliates [1]; MEM medium, Dosage 900 ppm): Δ
- Survival or Death of scuticociliates (activity and shape, microscope) (scuticociliates [1]; MEM medium, Dosage 1000 ppm): Death
- Survival or Death of scuticociliates (activity and shape, microscope) (scuticociliates [2]; seawater medium, 4 hour, Dosage 10 ppm): Survival
- Survival or Death of scuticociliates (activity and shape, microscope) (scuticociliates [2]; seawater medium, 4 hour, Dosage 50 ppm): Survival
- Survival or Death of scuticociliates (activity and shape, microscope) (scuticociliates [2]; seawater medium, 4 hour, Dosage 100 ppm): Survival
- Survival or Death of scuticociliates (activity and shape, microscope) (scuticociliates [2]; seawater medium, 4 hour, Dosage 200 ppm): Survival
- Survival or Death of scuticociliates (activity and shape, microscope) (scuticociliates [2]; seawater medium, 4 hour, Dosage 300 ppm): Survival
- Survival or Death of scuticociliates (activity and shape, microscope) (scuticociliates [2]; seawater medium, 4 hour, Dosage 400 ppm): Survival
- Survival or Death of scuticociliates (activity and shape, microscope) (scuticociliates [2]; [3]): Survival
- Survival or Death of scuticociliates (activity and shape, microscope) (scuticociliates [2]; seawater medium, 4 hour, Dosage 600 ppm): Survival
- Survival or Death of scuticociliates (activity and shape, microscope) (scuticociliates [2]; seawater medium, 4 hour, Dosage 700 ppm): Δ
- Survival or Death of scuticociliates (activity and shape, microscope) (scuticociliates [2]; seawater medium, 4 hour, Dosage 800 ppm): Δ
- Survival or Death of scuticociliates (activity and shape, microscope) (scuticociliates [2]; seawater medium, 4 hour, Dosage 900 ppm): Δ
- Survival or Death of scuticociliates (activity and shape, microscope) (scuticociliates [2]; [4]): Death

SMILES: O=[N+]([O-])NC1=NCCN1Cc1ccc(Cl)nc1 [Imidacloprid]
- Survival or Death of scuticociliates (activity and shape, microscope) (scuticociliates [1]; MEM medium, Dosage 500 ppm): Survival
- Survival or Death of scuticociliates (activity and shape, microscope) (scuticociliates [1]; MEM medium, Dosage 600 ppm): Survival
- Survival or Death of scuticociliates (activity and shape, microscope) (scuticociliates [1]; MEM medium, Dosage 700 ppm): Survival
- Survival or Death of scuticociliates (activity and shape, microscope) (scuticociliates [1]; MEM medium, Dosage 800 ppm): Survival
- Survival or Death of scuticociliates (activity and shape, microscope) (scuticociliates [1]; MEM medium, Dosage 900 ppm): Δ
- Survival or Death of scuticociliates (activity and shape, microscope) (scuticociliates [1]; MEM medium, Dosage 1000 ppm): Δ
- Survival or Death of scuticociliates (activity and shape, microscope) (scuticociliates [1]; MEM medium, Dosage 2000 ppm): Death
- Survival or Death of scuticociliates (activity and shape, microscope) (scuticociliates [1]; MEM medium, Dosage 5000 ppm): Death
- Survival or Death of scuticociliates (activity and shape, microscope) (scuticociliates [2]; [3]): Survival
- Survival or Death of scuticociliates (activity and shape, microscope) (scuticociliates [2]; [4]): Δ
- Survival or Death of scuticociliates (activity and shape, microscope) (scuticociliates [2]; seawater medium, 4 hour, Dosage 1200 ppm): Δ
- Survival or Death of scuticociliates (activity and shape, microscope) (scuticociliates [2]; seawater medium, 4 hour, Dosage 1400 ppm): Death
- Survival or Death of scuticociliates (activity and shape, microscope) (scuticociliates [2]; [5]): Death
- Survival or Death of scuticociliates (activity and shape, microscope) (scuticociliates [2]; [6]): Death
- Survival or Death of scuticociliates (activity and shape, microscope) (scuticociliates [2]; [7]): Death

SMILES: C1CNCCN1 [Piperazine]
- Survival or Death of scuticociliates (activity and shape, microscope) (scuticociliates [1]; MEM medium, Dosage 500 ppm): Survival
- Survival or Death of scuticociliates (activity and shape, microscope) (scuticociliates [1]; MEM medium, Dosage 1000 ppm): Survival
- Survival or Death of scuticociliates (activity and shape, microscope) (scuticociliates [1]; MEM medium, Dosage 1500 ppm): Survival
- Survival or Death of scuticociliates (activity and shape, microscope) (scuticociliates [1]; MEM medium, Dosage 2000 ppm): Survival
- Survival or Death of scuticociliates (activity and shape, microscope) (scuticociliates [1]; MEM medium, Dosage 2500 ppm): Survival
- Survival or Death of scuticociliates (activity and shape, microscope) (scuticociliates [1]; MEM medium, Dosage 3000 ppm): Survival
- Survival or Death of scuticociliates (activity and shape, microscope) (scuticociliates [1]; MEM medium, Dosage 3500 ppm): Survival
- Survival or Death of scuticociliates (activity and shape, microscope) (scuticociliates [1]; MEM medium, Dosage 4000 ppm): Survival
- Survival or Death of scuticociliates (activity and shape, microscope) (scuticociliates [2]; [3]): Survival
- Survival or Death of scuticociliates (activity and shape, microscope) (scuticociliates [2]; [4]): Survival
- Survival or Death of scuticociliates (activity and shape, microscope) (scuticociliates [2]; [5]): Survival
- Survival or Death of scuticociliates (activity and shape, microscope) (scuticociliates [2]; [6]): Survival
- Survival or Death of scuticociliates (activity and shape, microscope) (scuticociliates [2]; [7]): Survival
- Survival or Death of scuticociliates (activity and shape, microscope) (scuticociliates [2]; seawater medium, 4 hour, Dosage 3000 ppm): Survival
- Survival or Death of scuticociliates (activity and shape, microscope) (scuticociliates [2]; seawater medium, 4 hour, Dosage 3500 ppm): Survival
- Survival or Death of scuticociliates (activity and shape, microscope) (scuticociliates [2]; seawater medium, 4 hour, Dosage 4000 ppm): Survival

SMILES: CO[C@H]1C[C@H](O[C@@H]2/C(C)=C/C[C@@H]3C[C@@H](C[C@]4(CC[C@H](C)[C@@H](C5CCCCC5)O4)O3)OC(=O)[C@@H]3C=C(C)/C(=N/O)[C@H]4OC/C(=C\C=C\[C@@H]2C)[C@]43O)O[C@@H](C)[C@@H]1O [Selamectin]
- Survival or Death of scuticociliates (activity and shape, microscope) (scuticociliates [1]): Survival and Δ and Death
- Survival or Death of scuticociliates (activity and shape, microscope) (scuticociliates [2]): Survival and Δ and Death
